In the supplement of paper PMC10307832:

Columns and labels:
Test in all cases: relative viability (nuclei count vs DMSO), 5 days (fraction); higher = more cells survive
[1] = tested on: LC-2-ad
Procedure, shortened: (§1)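 Nuclei were stained with Hoechst during a one-step fixation (final 0.05% Triton X-100, 1% formaldehyde, 1 ug/ml Hoechst) carried out 5 days after dosing, then counted on 4× images. The cells, lung cancer lines in 1536-well plates, had been dosed by pin tool the day after seeding with one drug alone or a fixed anchor-drug dose plus five library-drug doses (not always all listed) in √10 steps. Relative viability is the nuclei count in treated wells divided by that in vehicle wells, and each value is the median of duplicate plates.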

[2] = tested on: BEN
Procedure, shortened: as §1

[3] = tested on: H3255
Procedure, shortened: as §1

[4] = tested on: A-427
Procedure, shortened: as §1

[5] = tested on: NCI-H1650
Procedure, shortened: as §1

[6] = tested on: NCI-H520
Procedure, shortened: as §1

[7] = tested on: PC-3 [JPC-3]
Procedure, shortened: as §1

[8] = tested on: NCI-H441
Procedure, shortened: as §1

[9] = tested on: NCI-H650
Procedure, shortened: as §1

[10] = tested on: NCI-H460
Procedure, shortened: as §1

[11] = tested on: ABC-1
Procedure, shortened: as §1

[12] = tested on: NCI-H2087
Procedure, shortened: as §1

[13] = tested on: LCLC-97TM1
Procedure, shortened: as §1

[14] = tested on: NCI-H2023
Procedure, shortened: as §1

[15] = tested on: NCI-H1944
Procedure, shortened: as §1

[16] = tested on: NCI-H596
Procedure, shortened: as §1

[17] = tested on: NCI-H1651
Procedure, shortened: as §1

[18] = tested on: 201T
Procedure, shortened: as §1

[19] = tested on: NCI-H661
Procedure, shortened: as §1

[20] = tested on: NCI-H1915
Procedure, shortened: as §1

[21] = tested on: NCI-H727
Procedure, shortened: as §1

`CC(=O)O[C@@]12CO[C@@H]1C[C@H](O)[C@@]1(C)C(=O)[C@H](O)C3=C(C)[C@@H](OC(=O)[C@H](O)[C@@H](NC(=O)OC(C)(C)C)c4ccccc4)C[C@@](O)([C@@H](OC(=O)c4ccccc4)[C@H]21)C3(C)C` [Docetaxel] + Nc1ncn([C@H]2C[C@H](O)[C@@H](CO)O2)c(=O)n1 [Decitabine] (partner 2 µM) gave a relative viability ([1]; first compound 0.0002 µM) of 0.769, a relative viability ([1]; first compound 0.000632 µM) of 0.714 and a relative viability ([1]; first compound 0.002 µM) of 0.465. The relative viability ([1]; first compound 0.006325 µM) was 0.323, the relative viability ([1]; first compound 0.02 µM) was 0.272 and the relative viability ([2]; first compound 0.0002 µM) was 0.522. For the same compound, the relative viability ([2]; first compound 0.000632 µM) was 0.621, the relative viability ([2]; first compound 0.002 µM) was 0.426 and the relative viability ([2]; first compound 0.006325 µM) was 0.417. It also gave a relative viability ([2]; first compound 0.02 µM) of 0.325, a relative viability ([3]; first compound 0.0002 µM) of 0.734 and a relative viability ([3]; first compound 0.000632 µM) of 0.566. It also gave a relative viability ([3]; first compound 0.002 µM) of 0.335, a relative viability ([3]; first compound 0.006325 µM) of 0.31 and a relative viability ([3]; first compound 0.02 µM) of 0.27. For the same compound, the relative viability ([4]; first compound 0.0002 µM) was 0.568, the relative viability ([4]; first compound 0.000632 µM) was 0.569 and the relative viability ([4]; first compound 0.002 µM) was 0.443. The relative viability ([4]; first compound 0.006325 µM) was 0.3, the relative viability ([4]; first compound 0.02 µM) was 0.222 and the relative viability ([5]; first compound 0.0002 µM) was 0.376. For the same compound, the relative viability ([5]; first compound 0.000632 µM) was 0.323, the relative viability ([5]; first compound 0.002 µM) was 0.246 and the relative viability ([5]; first compound 0.006325 µM) was 0.2. It also gave a relative viability ([5]; first compound 0.02 µM) of 0.193, a relative viability ([6]; first compound 0.0002 µM) of 0.454 and a relative viability ([6]; first compound 0.000632 µM) of 0.465. The relative viability ([6]; first compound 0.002 µM) was 0.333, the relative viability ([6]; first compound 0.006325 µM) was 0.249 and the relative viability ([7]; first compound 0.0002 µM) was 0.816. For the same compound, the relative viability ([7]; first compound 0.000632 µM) was 0.849, the relative viability ([7]; first compound 0.002 µM) was 0.666 and the relative viability ([7]; first compound 0.006325 µM) was 0.5. For the same compound, the relative viability ([7]; first compound 0.02 µM) was 0.294, the relative viability ([8]; first compound 0.0002 µM) was 0.25 and the relative viability ([8]; first compound 0.000632 µM) was 0.234. The relative viability ([8]; first compound 0.002 µM) was 0.178, the relative viability ([8]; first compound 0.006325 µM) was 0.2 and the relative viability ([8]; first compound 0.02 µM) was 0.163. For the same compound, the relative viability ([9]; first compound 0.0002 µM) was 0.299, the relative viability ([9]; first compound 0.000632 µM) was 0.307 and the relative viability ([9]; first compound 0.002 µM) was 0.274. For the same compound, the relative viability ([9]; first compound 0.006325 µM) was 0.278, the relative viability ([9]; first compound 0.02 µM) was 0.127 and the relative viability ([10]; first compound 0.0002 µM) was 0.443. For the same compound, the relative viability ([10]; first compound 0.002 µM) was 0.061, the relative viability ([10]; first compound 0.006325 µM) was 0.0383 and the relative viability ([10]; first compound 0.02 µM) was 0.0286. For the same compound, the relative viability ([11]; first compound 0.0002 µM) was 1.04, the relative viability ([11]; first compound 0.000632 µM) was 0.923 and the relative viability ([11]; first compound 0.002 µM) was 1.01. The relative viability ([11]; first compound 0.006325 µM) was 0.618, the relative viability ([11]; first compound 0.02 µM) was 0.416 and the relative viability ([12]; first compound 0.0002 µM) was 0.286. For the same compound, the relative viability ([12]; first compound 0.000632 µM) was 0.227, the relative viability ([12]; first compound 0.002 µM) was 0.172 and the relative viability ([12]; first compound 0.006325 µM) was 0.0964. The relative viability ([12]; first compound 0.02 µM) was 0.098, the relative viability ([13]; first compound 0.0002 µM) was 0.208 and the relative viability ([13]; first compound 0.000632 µM) was 0.189. It also gave a relative viability ([13]; first compound 0.002 µM) of 0.133, a relative viability ([13]; first compound 0.006325 µM) of 0.112 and a relative viability ([13]; first compound 0.02 µM) of 0.0836. The relative viability ([14]; first compound 0.0002 µM) was 0.233, the relative viability ([14]; first compound 0.000632 µM) was 0.161 and the relative viability ([14]; first compound 0.002 µM) was 0.102. It also gave a relative viability ([14]; first compound 0.006325 µM) of 0.0989, a relative viability ([14]; first compound 0.02 µM) of 0.0701 and a relative viability ([15]; first compound 0.0002 µM) of 0.45. The relative viability ([15]; first compound 0.000632 µM) was 0.461, the relative viability ([15]; first compound 0.002 µM) was 0.406 and the relative viability ([15]; first compound 0.006325 µM) was 0.291. It also gave a relative viability ([15]; first compound 0.02 µM) of 0.139, a relative viability ([16]; first compound 0.0002 µM) of 1.02 and a relative viability ([16]; first compound 0.000632 µM) of 1.01. For the same compound, the relative viability ([16]; first compound 0.002 µM) was 1.02, the relative viability ([16]; first compound 0.006325 µM) was 0.639 and the relative viability ([16]; first compound 0.02 µM) was 0.372. It also gave a relative viability ([17]; first compound 0.0002 µM) of 0.458, a relative viability ([17]; first compound 0.000632 µM) of 0.547 and a relative viability ([17]; first compound 0.002 µM) of 0.299. It also gave a relative viability ([17]; first compound 0.006325 µM) of 0.173, a relative viability ([18]; first compound 0.0002 µM) of 0.782 and a relative viability ([18]; first compound 0.000632 µM) of 0.778. It also gave a relative viability ([18]; first compound 0.002 µM) of 0.701, a relative viability ([18]; first compound 0.006325 µM) of 0.47 and a relative viability ([18]; first compound 0.02 µM) of 0.331. It also gave a relative viability ([19]; first compound 0.0002 µM) of 0.519, a relative viability ([19]; first compound 0.000632 µM) of 0.575 and a relative viability ([19]; first compound 0.002 µM) of 0.606. The relative viability ([19]; first compound 0.006325 µM) was 0.358, the relative viability ([19]; first compound 0.02 µM) was 0.343 and the relative viability ([20]; first compound 0.0002 µM) was 0.245. It also gave a relative viability ([20]; first compound 0.000632 µM) of 0.25, a relative viability ([20]; first compound 0.002 µM) of 0.231 and a relative viability ([20]; first compound 0.006325 µM) of 0.184. It also gave a relative viability ([20]; first compound 0.02 µM) of 0.124, a relative viability ([21]; first compound 0.0002 µM) of 0.738 and a relative viability ([21]; first compound 0.000632 µM) of 0.895. The relative viability ([21]; first compound 0.002 µM) was 0.709, the relative viability ([21]; first compound 0.006325 µM) was 0.663 and the relative viability ([21]; first compound 0.02 µM) was 0.788.
